Earlier results on one substance are cited in US20100310475A1, “Biocide Capsules, Preparation Comprising them and Sanitary Pad Comprising the Preparation” (DOLHAY KLINIKA EG[…]., priority 2007, published 2010).

In the series the test system is pathogens. As to conditions: water solution.

In the case of “polyvinyl-pyrrolidone iodine [PVP-iodine]”, the most effective concentration-range is listed as 0.01-1 % by weight.
